Several values for one entry are separate records, joined by “and”; a condition that tells them apart may be missing. Equal entries are not always repeated. Where two headings read alike, the source gives them in different places. Ends that are not written are not given here.
Tests used:
NP-1 [1] = target: T1, NP-1 (Homo sapiens, UniProt O14786); assay type: binding; set-up: the NP-1 cDNA used for these experiments would only produce the full-length receptor; expressed in transfected cells; host or cells: COS-1
T1 sequence (O14786 22-923): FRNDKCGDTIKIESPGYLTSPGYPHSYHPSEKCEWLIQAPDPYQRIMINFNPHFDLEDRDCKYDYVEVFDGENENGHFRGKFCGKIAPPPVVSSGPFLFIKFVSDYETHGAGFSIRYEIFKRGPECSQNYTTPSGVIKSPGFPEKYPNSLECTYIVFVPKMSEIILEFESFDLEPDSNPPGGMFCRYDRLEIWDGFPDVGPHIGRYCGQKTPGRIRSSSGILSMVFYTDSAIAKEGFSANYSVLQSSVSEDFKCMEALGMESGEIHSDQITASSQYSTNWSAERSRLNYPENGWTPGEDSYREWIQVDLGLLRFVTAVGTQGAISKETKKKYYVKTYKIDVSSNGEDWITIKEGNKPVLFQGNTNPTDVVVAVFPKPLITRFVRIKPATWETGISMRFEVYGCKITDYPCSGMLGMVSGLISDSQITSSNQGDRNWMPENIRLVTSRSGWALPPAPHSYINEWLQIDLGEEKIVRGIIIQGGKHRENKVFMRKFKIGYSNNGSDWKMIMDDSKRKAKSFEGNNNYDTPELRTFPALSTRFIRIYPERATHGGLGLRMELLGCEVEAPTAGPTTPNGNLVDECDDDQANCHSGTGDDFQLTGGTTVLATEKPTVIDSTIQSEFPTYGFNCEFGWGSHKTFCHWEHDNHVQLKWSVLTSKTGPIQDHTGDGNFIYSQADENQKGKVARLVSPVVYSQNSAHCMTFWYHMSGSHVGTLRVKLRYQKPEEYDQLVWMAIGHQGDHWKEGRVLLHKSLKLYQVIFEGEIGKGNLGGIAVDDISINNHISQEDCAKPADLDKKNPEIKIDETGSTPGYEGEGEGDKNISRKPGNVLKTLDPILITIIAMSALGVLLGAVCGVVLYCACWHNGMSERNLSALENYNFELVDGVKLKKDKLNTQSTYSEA
Protocol: (§1) When co-expressing VEGFR-2 and NP-1, 5 μg of VEGFR-2 cDNA and 2 μg of NP-1 cDNA are used. When the receptors are expressed in isolation, for VEGFR-2, 5 μg of VEGFR-2 cDNA and 2 μg of mock vector cDNA are used.
(§2) After generation of the liposome/DNA solution, the cells are rinsed one time with 5 ml Optimem I, then replaced with another 5 ml of Optimem I containing the liposome/DNA solution. The cells are incubated for two to four hours at 37° C., 5% CO2, then 5 ml of COS-1 cell growth medium is applied and the transfection is allowed to proceed overnight. The following day, cells are trypsinized (0.2% trypsin, 1 mM EDTA, Gibco-BRL), and cells containing common transfectants are pooled. […] The cells are then used for corresponding VEGFR-2/NP-1 complex formation and peptide blocking studies.
(§3) Cells are plated the day before experimentation at 200,000 cells per well in twelve well tissue culture plates (VWR) in 1 ml of growth medium specific for each cell type. On the day of experimentation, the cells were pre-equilibrated at 4° C. for 30 to 60 minutes in binding buffer (0.2% BSA, Sigma; 25 mM Hepes, Gibco; MEM, Gibco). […] The binding reaction is allowed to reach equilibrium for four hours at 4° C. with gentle agitation.
(§4) Unbound ligand is then removed by quickly washing three times with 5 ml ice cold BSA-free binding buffer (MEM, Gibco, 25 mM Hepes, Gibco). Cells are lysed by the addition of 250 μl of RIPS Buffer (previously described), and the lysed cells are transferred to 12×75 mm test tubes and counted using a gamma counter. Generation of competition curves and IC50 values are performed using the Prism software package (Graphpad Software Inc., San Diego, Calif.).

VEGFR-2/NP-1 [2] = test system: T2, VEGFR-2/NP-1; assay type: binding, human
T2 construct: In the COS-1 cells overexpressing the full-length VEGFR-2; the NP-1 cDNA used for these experiments would only produce the full-length receptor; expressed in transfected cells; host or cells: COS-1
Protocol: as §1, §2, §3, §4

VEGFR-2 = target: T3, VEGFR-2 (Homo sapiens, UniProt P35968); assay type: binding
T3 construct: In the COS-1 cells overexpressing the full-length VEGFR-2; expressed in transfected cells; host or cells: COS-1
T3 sequence (P35968 20-1356): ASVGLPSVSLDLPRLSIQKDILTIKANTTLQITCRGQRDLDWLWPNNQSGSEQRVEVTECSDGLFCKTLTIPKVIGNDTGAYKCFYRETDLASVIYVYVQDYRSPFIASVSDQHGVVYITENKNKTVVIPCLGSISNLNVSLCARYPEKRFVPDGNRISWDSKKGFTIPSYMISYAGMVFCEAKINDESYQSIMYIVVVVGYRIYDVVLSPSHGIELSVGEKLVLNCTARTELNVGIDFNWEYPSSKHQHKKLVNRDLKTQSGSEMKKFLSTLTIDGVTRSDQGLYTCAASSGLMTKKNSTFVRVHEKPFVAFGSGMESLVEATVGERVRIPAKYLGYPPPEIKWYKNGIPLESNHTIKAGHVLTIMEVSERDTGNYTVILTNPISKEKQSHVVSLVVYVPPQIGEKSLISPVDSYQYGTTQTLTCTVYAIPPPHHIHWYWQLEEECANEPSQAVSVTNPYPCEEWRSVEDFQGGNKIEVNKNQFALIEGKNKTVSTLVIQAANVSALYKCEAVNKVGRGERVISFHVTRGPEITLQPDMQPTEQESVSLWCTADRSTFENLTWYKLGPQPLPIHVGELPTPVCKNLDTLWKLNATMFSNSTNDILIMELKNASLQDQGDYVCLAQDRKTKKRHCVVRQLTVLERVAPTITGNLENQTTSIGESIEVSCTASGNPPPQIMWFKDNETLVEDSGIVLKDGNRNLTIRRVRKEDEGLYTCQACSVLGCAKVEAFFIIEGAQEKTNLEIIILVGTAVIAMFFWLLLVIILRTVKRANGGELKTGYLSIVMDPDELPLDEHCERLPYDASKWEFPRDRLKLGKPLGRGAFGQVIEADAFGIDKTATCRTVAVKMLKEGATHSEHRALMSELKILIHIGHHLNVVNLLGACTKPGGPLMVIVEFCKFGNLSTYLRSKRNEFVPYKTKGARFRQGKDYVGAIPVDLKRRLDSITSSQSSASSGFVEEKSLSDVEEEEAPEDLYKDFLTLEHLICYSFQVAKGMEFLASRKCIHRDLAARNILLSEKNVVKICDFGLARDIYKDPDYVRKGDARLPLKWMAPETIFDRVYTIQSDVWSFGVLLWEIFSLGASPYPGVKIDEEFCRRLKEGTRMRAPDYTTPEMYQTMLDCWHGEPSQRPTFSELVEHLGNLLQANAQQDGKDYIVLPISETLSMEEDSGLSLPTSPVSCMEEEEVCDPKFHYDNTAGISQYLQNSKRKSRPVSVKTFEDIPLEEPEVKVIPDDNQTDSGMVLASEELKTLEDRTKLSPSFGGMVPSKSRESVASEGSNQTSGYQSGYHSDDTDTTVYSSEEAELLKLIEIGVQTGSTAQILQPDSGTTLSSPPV
Protocol: as §1, §2
Cells are plated the day before experimentation at 200,000 cells per well in twelve well tissue culture plates (VWR) in 1 ml of growth medium specific for each cell type. […]
as §4, with “Generation of competition curves and IC50 values are performed using the Prism software package (Graphpad Software Inc., San Diego, Calif.).” left out

NP-1 [3] = target: T1, NP-1; experiment: Whole cell binding assay: competition for 125I-VEGF165 in stable Balb/C 3T3 A31 cells overexpressing NP-1; details: for IC50: Balb/C 3T3 A31 cells, competition for 125I-VEGF165; for Relative affinity (IC50 peptide / IC50 VEGF165), NP-1: Stable Balb/c cells
Protocol: (§5) Balb/C 3T3 A31 VEGFR-2, NP-1, and VEGFR-2/NP1 stable cells are created using the Nolan Lab Phoenix Retroviral system, previously described.
(§6) Virus containing the hNP-1 gene is generated according to the procedure outlined previously using the QMXE cells.
(§7) Clonal cell lines are obtained by subjecting the NP-1 infected cells to neomycin selection using Balb/C growth medium containing 1.5–2.0 mg/ml G418 (Gibco-BRL) for two weeks. Single colonies are obtained and clones are subjected to Western blot analysis to confirm stable expression of NP-1.
as §3, §4

VEGFR-2/NP-1 [4] = experiment: Whole cell binding assay: competition for 125I-VEGF165 in stable Balb/C 3T3 A31 cells overexpressing VEGFR-2 and NP-1; set-up: species or system human
Protocol: as §5, §6, §7, §3
as §4, with “Generation of competition curves and IC50 values are performed using the Prism software package (Graphpad Software Inc., San Diego, Calif.).” left out

COS-1 cells (Mock) = experiment: Saturation analysis of 125I-VEGF165 binding, COS-1 Mock; details: COS-1 transient
Source text: To perform hNeuropilin-1 (hNP-1) and hVEGFR-2 complex formation and peptide blocking experiments, the hVEGFR-2 and hNP-1 cDNAs are cloned into the pJFE14 mammalian expression plasmid (Regeneron Pharmaceuticals) containing the SRα promoter. COS-1 cells are transiently transfected with pJFE14 (Regeneron Pharmaceuticals), hVEGFR-2 (Regeneron Pharmaceuticals), or hNP-1 (Procter & Gamble Pharmaceuticals) expression plasmids using the Lipofectamine-2000 system (Gibco-BRL). […] When co-expressing VEGFR-2 and NP-1, 5 μg of VEGFR-2 cDNA and 2 μg of NP-1 cDNA are used. When the receptors are expressed in isolation, for VEGFR-2, 5 μg of VEGFR-2 cDNA and 2 μg of mock vector cDNA are used.
as §4, with “Calif.). […]” for “Calif.).”
This possibility was evaluated by determining equilibrium binding Kd values in cells expressing VEGFR-2 alone, NP-1 alone, and cells co-expressing both receptors, using standard saturation analysis techniques as known to one skilled in the art.

[5] = test system: Balb/c cells (Mock, endogenous NP-1); experiment: Saturation analysis of 125I-VEGF165 binding, Balb/c Mock (pGBMGH); details: Balb/c stable
Source text: Pools of infected Balb/C 3T3 A31 cells expressing hVEGFR-2 or GFP alone (Mock) are selected two times by FACS sorting using the hVEGFR-2 specific monoclonal antibody J5F4A2 (Procter & Gamble Pharmaceuticals as described in J. Biol. Chem. 276(27):25520–25531 (2001), which is expressly incorporated by reference herein in its entirety, for the VEGFR-2 cells, or by GFP emission for the Mock cells. Clonal populations of VEGFR-2 are generated by subjecting the FACS sorted VEGFR-2 cell pool to limiting dilution. A clonal hVEGFR-2 cell line termed D7R2 is selected for experimental studies based on its high levels of hVEGFR-2 expression by Western blot analysis. The pool of the Mock GFP expressing cells, hereinafter referred to as pGBMGH, is not subjected to limiting dilutions and thus is not a clonal population.
as §4, with “Generation of competition curves and IC50 values are performed using the Prism software package (Graphpad Software Inc., San Diego, Calif.).” left out
This possibility was evaluated by determining equilibrium binding Kd values in cells expressing VEGFR-2 alone, NP-1 alone, and cells co-expressing both receptors, using standard saturation analysis techniques as known to one skilled in the art. […]

[6] = test system: VEGF165 vascular growth response; experiment: Mouse corneal pocket model; assay type: in vivo; set-up: key to Score #1 (subjective neovascular response score) / Score #2 (subjective neovascular response score) / Score #3 (subjective neovascular response score): subjective neovascular growth score, 0 to 6 scale; details: per animal, scale 0 to 6, pellet P6V8 4 μg and/or VEGF165 300 ng
Protocol: A 0.2 μl aliquot of this solution yielded a 4 μg dose. Human recombinant VEGF165 was purchased from R&D Systems (Minneapolis, Minn.), supplied in a lyophilized, carrier free form and reconstituted in the same water as the above peptide. A 0.2 μl aliquot of this solution yielded a 300 ng dose.
Male albino mice (Crl: CD-I (ICR) BR, VAF) from Charles River (Portage, N.C.), 20–24 grams were used. […] Compound adsorbed pellets were fabricated and implanted as described below. The treated eye was imaged on the day of implantation (day 0) and on days 4 and 7 following surgery. The growth response was subjectively graded on a scale from 0 to 6 by three independent graders blinded from the treatment grouping labels using the 3× printed image.
Polyvinyl alcohol (PVA) matrix material (Rippey, El Dorado Hills, Calif.) was cut into 1 cm×3 cm pieces and placed in a vibratome for sectioning on edge to produce 300 μm thick strips. The strips were individually sterilized by exposure to ethylene oxide. A strip was then cut under a dissecting microscope into approximately 300 μm cubes. The desired concentration of test compound or vehicle was adsorbed, sometimes utilizing a micro dessicant chamber. An HP auto sampler micro-syringe (Hamilton, P/N 7000.5) controlled the exact volume of the agent adsorbed onto the sponge. The sponge was then placed on a microscope slide prepared with a coating (20 μl spread over a 0.75 mm×1.5 mm area) of 12% hydron (Sigma, St. Louis, Mo.). The slide was protected in a clean petri dish and placed into a dessicator at 4° C. for a few hours or overnight. The dry, adsorbed sponges were mechanically flattened and overlaid with another aliquot of 12% hydron and again placed into a dessicator to cure the hydron coating. Fabrication of the adsorbed PVA sponge-hydron sandwich (referred to as a pellet) was done no more than 48 hours prior to implantation and the pellets were stored at 4° C. On the day of surgery and just prior to implantation, the pellet was trimmed so that the sponge remained encased by hydron (approximately 400 μm×400 μm×50 μm) and could be carefully removed from the slide.
Mice were anesthetized with 0.05 cc of Ketamine (140 mg/kg) and 0.03 cc Xylazine (17 mg/kg). A surgical plane of anesthesia was maintained by subsequent administration of half doses of the above compounds as needed. The whiskers on the animal's right side were trimmed down to ¼ of an inch. The right eye was bathed in an ophthalmic local anesthetic solution (Ophthaine, 0.5% tetracine hydrochloride) initially and throughout the procedure. The animal was placed on its side and the skin around the eye was gently retracted to expose the lateral and apical aspects of the cornea. The lateral limbic artery bifurcation was positioned horizontally. While stabilizing the eye against the ocular orbit, a vertical incision was made using a micro scalpel into the corneal tissue just lateral to the pupil. Care was taken to prevent accidental perforation of the anterior eye chamber. The incision depth was carefully deepened until a delicate and small lateral stab could be made (on axis with the lateral limbic artery bifurcation) with the micro scalpel into the middle of the corneal stroma. This lateral, intrastromal incision was enlarged by blunt dissection with very fine forceps until a pocket was formed from the vertical incision toward the limbus.
A hydron coated PVA sponge with adsorbed test compound (pellet) was prepared for implantation by carefully excising and removing it from the microscope slide. The pellet was introduced gently into the corneal pocket and advanced to within 1–2 mm of the limbus. The edges of the vertical corneal incision were approximated to encourage rapid healing. The imaging procedure (described below) was used to document the native limbic vascular architecture at the time of implantation. Post surgical recovery of the animal consisted of triple antibiotic ophthalmic ointment to prevent corneal drying, abrasion and infection. […]

Substance | Relative Affinity to Lead Peptide (RALP), NP-1 (NP-1 [1]) | Relative Affinity to Lead Peptide (RALP), VEGFR-2 (VEGFR-2) | Relative Affinity to Lead Peptide (RALP), VEGFR-2/NP-1 (VEGFR-2/NP-1 [2]) | IC50 (NP-1 [3]) | Relative affinity (IC50 peptide / IC50 VEGF165), NP-1 (NP-1 [3]) | Relative affinity (IC50 peptide / IC50 VEGF165), VEGFR-2/NP-1 (VEGFR-2/NP-1 [4]) | further results
H-RRPKGRGKRAAAKQRPSDKPRR-OH [AS-3, RRP KGR GKR AAA KQR PSD KPR R] | 0.55 | 4 |  |  |  |  | Relative Affinity to Lead Peptide (RALP), VEGFR-2/NP-1 (VEGFR-2/NP-1 [2]; AS series, lead peptide P6V8CS, COS-1, NC = no competition): complete loss of binding
H-RRPKGRGKRRREKQRAAAKPRR-OH [AS-4A] | 2.1 | 1.9 | 0.78 |  |  |  | 
KGRGKRRREKQRPCDKPRR [Peptide P6V8-3N, KGR GKR RRE KQR P CDK PRR] |  |  |  | 254 nM | 1,607 | 6,928 | 
RRPKGRGKRRREAAAPSDKPRR [AS-4] | 0.45 |  | 4.2 | 17.8 nM | 112 | 3,856 | selectivity for cells expressing NP-1 alone versus cells co-expressing VEGFR-2 and NP-1 (NP-1 [1]; COS-1): about 100 fold
VEGF165: human recombinant VEGF165 (R&D Systems), vascular endothelial growth factor isoform 165 |  |  |  |  |  |  | Kd (COS-1 cells (Mock)): 1.11 nM; Log Kd ± SEM (COS-1 cells (Mock)): −8.95 ± 0.31; Kd [5]: 0.222 nM; Log Kd ± SEM [5]: −9.65 ± 0.13; Score #1 (subjective neovascular response score) ([6]; grader 1): 2 (2×) and 3 (3×) and 4 (2×) and 5; Score #2 (subjective neovascular response score) ([6]; grader 2): 2 (3×) and 4 (4×) and 5; Score #3 (subjective neovascular response score) ([6]; grader 3): 2 (3×) and 3 (2×) and 4 and 5 (2×)
